ChEMBL document CHEMBL5137094, “Construction of Covalent Bisubstrate Inhibitor of Protein Kinase Reacting with Cysteine Residue at Substrate-Binding Site” (J Med Chem, 2022)
Activity calls are given as the source filed them. No cut-off for these calls is given here.

What was measured:
[1] = target: T1, cAMP-dependent protein kinase catalytic subunit alpha (Homo sapiens, UniProt P17612); test: Inhibition of ARC-1063 fluorescent probe binding to recombinant human PKAC-alpha incubated for 1 hr by time-gated luminescence intensity based displacement assay
[2] = target: T1, cAMP-dependent protein kinase catalytic subunit alpha; test: Displacement of ARC-1063 fluorescent probe from recombinant human PKAC-alpha assessed as dissociation equilibrium constant preincubated for 1 hr followed by photoluminescent probe addition by time-gated luminescence intensity based assay
[3] = target: T1, cAMP-dependent protein kinase catalytic subunit alpha; test: Displacement of ARC-1063 fluorescent probe from recombinant human PKAC-alpha assessed as dissociation half life preincubated for 1 hr followed by photoluminescent probe addition by time-gated luminescence intensity based assay
[4] = target: T1, cAMP-dependent protein kinase catalytic subunit alpha; test: Displacement of ARC-1063 fluorescent probe from recombinant human PKAC-alpha assessed as binding constant (kon) preincubated for 1 hr followed by photoluminescent probe addition by time-gated luminescence intensity based assay
[5] = target: T1, cAMP-dependent protein kinase catalytic subunit alpha; test: Covalent inhibition of human recombinant PKAC-alpha assessed as inhibition constant
[6] = GSH reactivity in potassium phosphate buffer at pH 7.4 assessed as half life at 0.15 mM at 37 degreeC measured for 30 to 60 mins by HPLC-MS analysis; assay type: physicochemical; details: potassium phosphate buffer with GSH, time 30-60 min
[7] = target: T1, cAMP-dependent protein kinase catalytic subunit alpha; test: Binding affinity to human recombinant PKAC-alpha assessed as reduction in TGLI signal at 10 uM pretreated with compound followed by ARC-1063 fluorescent probe addition by time-gated luminescence intensity based displacement assay; details: time 60-480 min, TDE = time-dependent effect
[8] = target: T1, cAMP-dependent protein kinase catalytic subunit alpha; test: Binding affinity to human recombinant PKAC-alpha assessed as inactivation constant measured upto 60 mins by Western blot analysis
[9] = GSH reactivity in potassium phosphate buffer at pH 7.4 assessed as half life at 0.15 mM at 30 degreeC measured for 30 to 60 mins by HPLC-MS analysis; assay type: physicochemical; details: potassium phosphate buffer with GSH, time 30-60 min
[10] = target: T1, cAMP-dependent protein kinase catalytic subunit alpha; test: Binding affinity to human recombinant PKAC-alpha at Cys199 residue assessed as compound-protein adduct formation by measuring mass difference at 3.5 uM incubated for 2 hrs by LC-MS/MS analysis
[11] = Drug degradation in phosphate buffer at pH 7.4 assessed as half life at 0.15 mM at 30 degreeC measured for 30 to 60 mins by HPLC-MS analysis; assay type: ADME; details: time 30-60 min
[12] = Drug degradation in phosphate buffer at pH 7.4 assessed as half life at 0.15 mM at 37 degreeC measured for 30 to 60 mins by HPLC-MS analysis; assay type: ADME; details: time 30-60 min
[13] = target: T1, cAMP-dependent protein kinase catalytic subunit alpha; test: Binding affinity to human recombinant PKAC-alpha assessed as inactivation constant incubated for 1 hr by time-gated luminescence intensity based displacement assay
[14] = target: T1, cAMP-dependent protein kinase catalytic subunit alpha; test: Binding affinity to human recombinant PKACalpha assessed as compound-protein adduct formation by measuring half life at 30 degreeC
[15] = target: T1, cAMP-dependent protein kinase catalytic subunit alpha; test: Irreversible inhibition of ARC-1063 fluorescent probe binding to recombinant human PKAC-alpha incubated for 22 hrs followed by probe addition at 20 nM and further incubated for 1 hr by time-gated luminescence intensity based displacement assay
[16] = target: T1, cAMP-dependent protein kinase catalytic subunit alpha; test: Inhibition of ARC-1063 fluorescent probe binding to recombinant human PKAC-alpha incubated for 22 hrs by time-gated luminescence intensity based displacement assay

| SMILES | IC50 [1] | Kd [2] | T1/2 [3] | K [4] | Ki [5] | Activity [7] | Kinact [8] | half-life at 150 µM [9] | Activity [10] | half-life at 150 µM [11] | half-life at 150 µM [12] | Kinact [13] | T1/2 [14] | IC50 [15] | IC50 [16] | half-life at 150 µM [6] |
| --- | --- | --- | --- | --- | --- | --- | --- | --- | --- | --- | --- | --- | --- | --- | --- | --- |
| CC[C@H](C)[C@H](NC(=O)CCC(=O)N[C@@H](CCCCNC(=O)[C@@H](CCCNC(=N)N)NC(=O)CCCCCCCC(=O)N1CCN(c2ncnc3[nH]ccc23)CC1)C(=O)N[C@H](CCCNC(=N)N)C(=O)N[C@H](CCCNC(=N)N)C(N)=O)C(=O)NCC(=O)CF |  |  | 19 min |  | 0.023 nM | Tde | 5.8 10^-4/s | 44.4 min | Active | 78.6 min | 57 min | 6.1 10^-4/s | 0.32 h |  |  | 22.2 min |
| NC(=O)CF [MONOFLUOROACETAMIDE] |  |  |  |  |  |  |  |  |  |  |  |  |  |  |  | > 4200 min |
| CC[C@H](C)[C@H](NC(=O)CCC(=O)N[C@@H](CCCCNC(=O)[C@@H](CCCNC(=N)N)NC(=O)CCCCCCCC(=O)N1CCN(c2ncnc3[nH]ccc23)CC1)C(N)=O)C(=O)NCC(C)=O | 6100 nM | 4.2 nM | 0.1 min | 3.3 10^7/M/s |  |  |  |  |  |  |  |  |  |  |  |  |

Continued, in another order:

| IC50 [1] | Kd [2] | T1/2 [3] | K [4] | Ki [5] | Activity [7] | Kinact [8] | half-life at 150 µM [9] | Activity [10] | half-life at 150 µM [11] | half-life at 150 µM [12] | Kinact [13] | T1/2 [14] | IC50 [15] | IC50 [16] | SMILES | half-life at 150 µM [6] |
| --- | --- | --- | --- | --- | --- | --- | --- | --- | --- | --- | --- | --- | --- | --- | --- | --- |
| 5.6 nM | 0.0049 nM | 11.1 min | 2.2 10^8/M/s |  |  |  |  |  |  |  |  |  |  |  | CC[C@H](C)[C@H](NC(=O)CCC(=O)N[C@@H](CCCCNC(=O)[C@@H](CCCNC(=N)N)NC(=O)CCCCCCCC(=O)N1CCN(c2ncnc3[nH]ccc23)CC1)C(=O)N[C@H](CCCNC(=N)N)C(=O)N[C@H](CCCNC(=N)N)C(=O)N[C@H](CCCNC(=N)N)C(N)=O)C(=O)NCC(C)=O |  |
| 1200 nM |  | > 150 min |  | 0.63 nM | Tde |  |  |  |  |  | 7.7 10^-5/s | 2.52 h | 800 nM | 500 nM | CC[C@H](C)[C@H](NC(=O)CCC(=O)N[C@@H](CCCCNC(=O)[C@@H](CCCNC(=N)N)NC(=O)CCCCCCCC(=O)N1CCN(c2ncnc3[nH]ccc23)CC1)C(=O)N[C@H](CCCNC(=N)N)C(N)=O)C(=O)NCC(=O)CF |  |
